Tests used:
sorted splenic pDCs [1] = experiment: NGF and CREB relative mRNA (qRT-PCR) in cultured sorted splenic pDCs; format: cell-based, mouse
Experimental: pDCs were isolated from DPE-GFP×RAG1^−/− and cDCs were purified from naïve WT C57BL/6 mice, respectively. DPE-GFP×RAG1^−/− mice underwent subcutaneous injection of 5×10^6 B16 murine Flt3L-secreting melanoma tumor cells. 10-14 days later, mice were euthanized; spleens were harvested, and mechanically disturbed using a 5 ml syringe plunger and were filtered through a […] cell strainer (BD Falcon). Next, after incubation with ice-cold ammonium chloride (ACK) lysis buffer (Biofluids, Rockville, Md.) for 1 minute to remove contaminating RBCs, cells were washed with PBS. GFP-tagged pDCs were sorted via Moflo Cell Sorter (Beckman Coulter, Brea, Calif.). For obtaining pDCs for co-culturing TGCs with different densities of pDCs, as well as for flow cytometry and presence of NGF mRNA on GFP-tagged splenic pDCs, and comparing the NGF mRNA content in pDCs and cDCs, naïve DPE-GFP×RAG1^−/− mice were used. cDCs were purified using CD11c MicroBeads (Miltenyi Biotec) according to the manufacturer's instruction, with a purity of more than 85%.
(§1) Isolated splenic pDCs were cultured in 48 well plates (200,000 cells/well) for 3 days with Ham's F-12 Nutrient Mix (Gibco, Carlsbad, Calif.) supplemented with 10% heat inactivated fetal bovine serum (FBS; Gemini Bioproducts, Woodland, Calif.), and 1% penicillin/streptomycin (Life Technologies, Carlsbad, Calif.). Cells were treated with 1, 5, and 10 μg/ml Imiquimod (InvivoGen, San Diego, Calif.) or PBS upon seeding. In another set of experiments, cells were pretreated with 10 μM SB 203580 (p38 MAP kinase inhibitor; Sigma-Aldrich) or PBS 1 hour prior to addition of 1 μg/ml Imiquimod (InvivoGen) or PBS. Cells were harvested for RNA or protein extraction 3 days after culture.
(§2) Corneal epithelium was removed with fine forceps following 30 minutes incubation with PBS containing 20 mM EDTA (Sigma-Aldrich) at 37° C. Next, 4-6 corneal stromas were pooled and lysed using BeadBug Microtube Homogenizer (Benchmark Scientific, Inc., Edison, N.J.). Next, RNA was isolated from the corneal stroma using RNeasy Plus Universal Mini kit (QIAGEN, Germantown, Md.). For isolating RNA from freshly sorted pDCs, purified cDCs, cultured pDCs, and cultured TGCs, RNeasy Plus Micro Kit (QIAGEN) was used. RNA yield was measured by spectroscopy (NanoDrop ND-1000; NanoDrop Technologies, Inc., Wilmington, Del.). cDNA was synthetized using 300 ng of template RNA using QuantiTect Reverse Transcription kit (Qiagen). qRT-PCR was performed using iTaq Universal SYBR Green Supermix (Biorad, Hercules, Calif.) and Eppendorf Mastercycler RealPlex 2 (Eppendorf, Hauppauge, N.Y.) with the primers described below. Relative mRNA levels were measured with ΔΔCT method.

sorted splenic pDCs [2] = experiment: Phospho-CREB protein level in cultured splenic pDC lysates (Bio-Plex); format: cell-based, mouse; settings: 3 days
Experimental: as §1
On day 3 following culture of sorted pDCs, cells were lysed via Bio-Plex Pro Cell Signaling Reagent Kit (Biorad) supplemented with phosphotase inhibitor cocktail (Roche) and phospho-CREB and β-actin levels were measured via phospho-CREB and β-actin Bio-Plex assays (Biorad) according to the manufacturer's instructions. Relative phospho-CREB to total β-actin protein levels were normalized to control group.

sorted corneal pDCs = experiment: Single cell PCR on sorted corneal pDCs stimulated in vitro; format: cell-based, mouse; settings: 24 hours in vitro, 3 μg/ml
Experimental: as §2
(§3) 8-10 corneas of naïve DPE-GFP×RAG1^−/− mice were excised and digested to yield a single cell suspension as described for flow cytometry experiments. GFP-tagged pDCs were sorted via Moflo Cell Sorter (Beckman Coulter) into a 96-well plate (100 cell/well) and cultured for 24 hours in RPMI (Gibco) supplemented with 10% 10% FBS (Gemini Bioproducts), 1% penicillin/streptomycin (Life Technologies), as well as 3 μg/ml Imiquimod, CpG-ODN, or control ODN (all InvivoGen). RNA isolation and cDNA synthesis were performed via REPLI-g Cell WGA & WTA kit (Qiagen). qRT-PCR was performed as described earlier. In another set of experiments, 4-6 corneas of DPE-GFP×RAG1^−/− mice undergoing inoculation of 10 μg Imiquimod, 10 μg CpG-ODN, or control ODN were harvested 24 hours following inoculation; next, corneas were digested and GFP-tagged pDCs were sorted (100 cell/condition) and underwent single cell PCR.

corneal pDCs = experiment: Ocular inoculation of TLR7 and 9 agonists, single cell PCR on sorted corneal pDCs; format: in vivo, mouse; settings: 24 hours; for relative mRNA levels of NGF: 10 μg inoculated to cornea of DPE-GFP×RAG1−/− mice
Experimental: as §3
Following anesthetizing DPE-GFP×RAG1^−/− mice and application of topical proparacaine hydrochloride, central corneal epithelium was debrided using an Algerbrush II corneal rust ring remover with a 0.5-mm burr (Alger Equipment Co, Lago Vista, Tex.). 10 μg Imiquimod (TLR7 agonist; InvivoGen, San Diego, Calif.), 10 μg phosphorothioate CpG 1826 oligonucleotide (CpG-ODN; a synthetic TLR9 agonist; InvivoGen), or control oligonucleotide 1826 (Control ODN; InvivoGen) was topically administered on the eye. 24 hours later corneas were removed to sort corneal GFP-tagged pDCs and single cell PCR experiments.

[3] = tested on: splenic pDCs (CD45+PDCA-1+CD45R/B220+); experiment: Endostatin expression in pDCs of cultured splenic cells (flow cytometry); format: cell-based, mouse; settings: splenic cells of C57BL/6 mice, 1 μg/ml, 24 hours
Experimental: Spleens of wildtype C57BL/6 mice were harvested and subjected to mechanical disruption. Samples were then filtered and underwent RBC lysis via incubation with ammonium chloride RBC lysis buffer (ACK; Biofluids, Rockville, Md.). Next, isolated splenic cells were cultured in RPMI supplemented with 10% heat-inactivated fetal bovine serum (FBS; Gemini Bioproducts, Woodland, Calif.), and 1% penicillin/streptomycin (Life Technologies, Carlsbad, Calif.). Cells were treated with 1 μg/ml Imiquimod (TLR7 agonist; InvivoGen, San Diego, Calif.), CpG-ODN (TLR9 agonist; InvivoGen), or PBS control for 24 hours. The experiment was done in triplicate.
After 24 hours of culture, isolated splenic cells were subjected to flow cytometry. In brief, cells were washed and then fixed and permeabilized using Foxp3/Transcription Factor Fixation/Permeabilization Reagent (eBioscience, San Diego, Calif.) according to the manufacturer's instructions. Cells were then washed twice with permeabilization buffer (eBioscience), blocked in 1% anti-CD16/CD32 FcR mAb at 4° C. in permeabilization buffer, and subsequently labeled with combinations of primary antibodies against CD45 (Biolegend, San Diego, Calif.), PDCA-1 (Biolegend), CD45R/B220 (Biolegend), Endostain (Abcam, Cambridge, Mass.) or their respective isotype controls for 30 minutes at 4° C. in the dark. After washing, cells were labeled with fluorochrome-conjugated anti-rabbit secondary antibody (for Endostatin) for 30 minutes at 4° C. All samples were washed and reconstituted in permeabilization before data acquisition with a BD LSR II flow cytometer (BD Biosciences). Data were analyzed with FlowJo V9.2 (FlowJo, LLC).

[4] = tested on: trigeminal ganglion cells (TGCs); experiment: Neurite outgrowth of TGCs in mono-culture or pDC co-culture with Imiquimod; format: cell-based, mouse; settings: day 3
Experimental: Initially, 10-day old pups were euthanized, TGs were excised, chopped into small fragments, and digested in 2 mg/ml Collagenase D (Roche), 2 mg/ml DNAse I (Roche), and 5 mg/ml Dispase II (Sigma-Aldrich) in Hank's Balanced Salt Solution (Gibco) at 37° C. for 30 minutes. Next, after filtering, cells were layered over a 12.5% on 28% Percoll (GE Healthcare, Pittsburgh, Pa.) gradient in L15 media (Gibco) and centrifuged at 1300 g for 10 minutes. Following removing debris in the percoll interface, purified TGCs were recovered from the bottom of the gradient. Next, 10,000 cells/well were seeded in 24 well cell culture plates coated with growth factor reduced Matrigel (Corning Inc, Corning, N.Y.) in Ham's F-12 Nutrient Mix (Gibco) supplemented with 10% heat inactivated FBS (Gemini Bioproducts), 1% penicillin/streptomycin (Life Technologies) and 100 ng/ml NGF (Sigma-Aldrich). After one day of culture, media was changed to a similar media without NGF and sorted pDCs with different numbers were added to transwells. […] TGCs were used for RNA extraction and quantitative real-time PCR.
In another set of experiments, TGCs (10,000 cells/well) were cultured one day to adding 8,000 pDCs/well) to transwells. […] Neurite outgrowth was measured NeuronJ plugin (Meijering et al., Cytometry A 58(2):167-76, 2004) for ImageJ software (NIH, Bethesda, Md.).

Which results are given for `C[S+]([O-])c1ccc(-c2nc(-c3ccncc3)c(-c3ccc(F)cc3)[nH]2)cc1` (stereo not shown) [SB 203580]?
relative NGF mRNA level (sorted splenic pDCs [1]; splenic pDCs pre-treated 1 hour with 10 μM SB 203580, then 1 μg/ml Imiquimod, 3 days): 0.4±0.1 fold change; phosphorylation of CREB (phospho-CREB normalized to β-actin) (sorted splenic pDCs [2]; splenic pDCs pre-treated 1 hour with 10 μM SB 203580, then 1 μg/ml Imiquimod, in comparison to control): 0.5±0.2 fold change

For “phosphorothioate CpG 1826 oligonucleotide [CpG-ODN]”, which “CREB transcription (relative mRNA)” value (sorted corneal pDCs) is on record?
Its value is “does not result in significant escalation in CREB transcription”.

What about the “relative mRNA level of NGF” value (sorted corneal pDCs) of the same compound?
Its value is “did not result in increased NGF mRNA transcription”.

And the “relative mRNA levels of NGF” value (corneal pDCs)?
The value was 1.8±1.6 fold increase.

And the “median fluorescent intensity of endostatin staining in pDCs” value [3]?
Its value is “increases”.

And the “percentage of endostatin-secreting pDCs” value [3]?
The value was “increases the percentage of endostatin-secreting”.

For `CC(C)Cn1cnc2c(N)nc3ccccc3c21` [Imiquimod], which “NGF relative mRNA level” value (sorted splenic pDCs [1]; splenic GFP-tagged pDCs, 3 days, 1, 5 and 10 μg/ml Imiquimod) is on record?
The value was “dose dependent increase”.

And the “CREB relative mRNA level” value (sorted splenic pDCs [1]; splenic GFP-tagged pDCs, 3 days, different concentrations of Imiquimod)?
Its value is “dose-dependent increase”.

And the “relative NGF mRNA level” value (sorted splenic pDCs [1]; splenic pDCs, 1 μg/ml Imiquimod, 3 days)?
Its value is 2.0±0.6 fold increase.

What about the “CREB transcription (relative mRNA)” value (sorted corneal pDCs) of the same compound?
The value was “increases transcription of CREB”.

And the “relative mRNA level of NGF” value (sorted corneal pDCs)?
The value was 2.6±0.7 fold increase.

What about the “relative mRNA levels of NGF” value (corneal pDCs) of the same compound?
Its value is 7.3±1.1 fold increase.

And the “CREB mRNA level” value (corneal pDCs; ocular inoculation of 10 μg, vs control inoculation)?
The value was “higher CREB mRNA levels”.

And the “neurite outgrowth in TGC mono-culture” value ([4]; TGCs alone, 1, 5 or 10 μg/ml Imiquimod)?
Its value is “does not significantly enhance neurite outgrowth”.

What about the “neurite outgrowth in pDC and TGC co-culture” value ([4]; TGCs with 8,000 pDCs/well in transwells, 1, 5 or 10 μg/ml Imiquimod) of the same compound?
Its value is “enhances neurite outgrowth induced by pDCs”.

And the “phosphorylation of CREB (phospho-CREB normalized to β-actin)” value (sorted splenic pDCs [2]; splenic pDCs, 1 μg/ml Imiquimod)?
Its value is 3.8±1.5 fold increase.

What about the “median fluorescent intensity of endostatin staining in pDCs” value [3] of the same compound?
Its value is “increases”.

And the “percentage of endostatin-secreting pDCs” value [3]?
The value was “increases the percentage of endostatin-secreting”.
